Test results taken from patent US9670231B2, “Fused tricyclic amide compounds as multiple kinase inhibitors” (BEIGENE, LTD., priority 2013, dated 2017).
Where two headings read alike, the source gives them in different places.

Legend:
Format in all cases: biochemical
[1] = target: B-Raf (V600E) (Homo sapiens (Human), UniProt P15056, V600E); test: Raf IC50 assay, TR-FRET, B-Raf (V600E); settings: 0.1 mM ATP; read-out: IC50 BRAF-V600E
[2] = target: C-Raf (Y340D/Y341D) (Homo sapiens (Human), UniProt P04049, Y340D/Y341D); test: Raf IC50 assay, TR-FRET, C-Raf (Y340D/Y341D); settings: 0.1 mM ATP
Experimental: Compounds disclosed herein were tested against B-Raf (V600E) (PV3849, from Invitrogen) or C-Raf (Y340D/Y341D) (PV3805, from Invitrogen) in a time-resolved fluorescence energy transfer assay. The assay was carried out in reactions (10 μL) containing 0.0625 nM B-Raf or 0.5 nM C-Raf, 25 mM Tris pH7.4, 10 mM MgCl2, 0.5 mM EGTA, 0.5 mM Na3VO4, 5 mM beta-glycerophosphate, 0.01% Triton X-100, 2.5 mM DTT, 0.1% BSA, 0.1 mM ATP, 13.7 nM GST-tagged MEK1 (Full-length protein with K97R mutation, recombinant protein purified from bacterial expression system) and 0-5 μM compounds disclosed herein (final concentration of 1% DMSO). The enzyme was incubated with the compounds disclosed herein at room temperature for 60 minutes and the reactions were initiated by the addition of ATP and GST-MEK1. After reaction at room temperature for 60 minutes, an equal volume of stop/detection solution was added according to the manufacture's instruction (CisBio Bioassays). The stop/detection solution contained Eu^3+ cryptate-conjugated anti-phospho MEK1/2 (Ser217/221) rabbit polyclonal antibody and d2-conjugated anti-GST mouse monoclonal antibody in buffer containing 25 mM Tris pH7.4, 400 mM KF, 50 mM EDTA, 0.01% BSA and 0.01% Triton X-100. Plates were sealed and incubated at room temperature for 2 hours, and the TR-FRET signals (ratio of fluorescence emission at 665 nm over emission at 620 nm with excitation at 337 nm wavelength) were recorded on a PHERAstar FS plate reader (BMG Labtech). Phosphorylation of MEK1 led to the binding of anti-phospho-MEK1/2 antibody to GST-MEK1 protein that place fluorescent donor (Eu^3+ crypate) in close proximity to the accepter d2 on the anti-GST antibody, thus resulting in a high degree of fluorescence resonance energy transfer from the donor fluorophore (at 620 nm) to the acceptor fluorophore (at 665 nm). […] The IC50 for each compound was derived from fitting the dose-response % inhibition data to the four-parameter logistic model by Graphpad Prism software.

[3] = target: EGFR L858R kinase domain (Homo sapiens (Human), UniProt P00533, L858R); test: EGFR enzymatic assay, TR-FRET, EGFR L858R
[4] = target: wild type B-Raf (Homo sapiens (Human), UniProt P15056); test: WT BRaf IC50 assay, TR-FRET
Experimental: WT BRaf IC50 Assay Protocol
Compounds disclosed herein were tested against wild type B-Raf (PV3848, from Invitrogen) in a time-resolved fluorescence energy transfer assay. […] The enzyme was incubated with the compounds disclosed herein at room temperature for 120 minutes and the reactions were initiated by the addition of ATP and GST-MEK1. After incubating at room temperature for 60 minutes, an equal volume of stop buffer containing 25 mM Tris pH7.4, 400 mM KF, 50 mM EDTA, 0.1% BSA, 0.01% Triton X-100, 1 test of Eu3+Cryptate-conjugated rabbit polyclonal antibody anti-Phospho MEK1/2 (Ser217/221) and 1 test of d2-conjugated mouse monoclonal antibody anti-glutathione S-transferase was added to stop the reactions. Plates were sealed and incubated at room temperature for 1.5 hours, and then the TR-FRET signals were read on BMG PHERAstar FS instrument. The IC50 for each compound was calculated by non linear regression by Graphpad Prism software.

[5] = target: EGFR T790M/L858R kinase domain (Homo sapiens (Human), UniProt P00533, L858R/T790M); test: EGFR enzymatic assay, TR-FRET, EGFR T790M/L858R
[6] = target: WT EGFR kinase domain (Homo sapiens (Human), UniProt P00533); test: EGFR enzymatic assay, TR-FRET, WT EGFR
[7] = Km ATP ([…] ATP), read-out: IC50 Braf-WT Km ATP

Chain of EGFR L858R kinase domain (P00533 669-1210 L858R): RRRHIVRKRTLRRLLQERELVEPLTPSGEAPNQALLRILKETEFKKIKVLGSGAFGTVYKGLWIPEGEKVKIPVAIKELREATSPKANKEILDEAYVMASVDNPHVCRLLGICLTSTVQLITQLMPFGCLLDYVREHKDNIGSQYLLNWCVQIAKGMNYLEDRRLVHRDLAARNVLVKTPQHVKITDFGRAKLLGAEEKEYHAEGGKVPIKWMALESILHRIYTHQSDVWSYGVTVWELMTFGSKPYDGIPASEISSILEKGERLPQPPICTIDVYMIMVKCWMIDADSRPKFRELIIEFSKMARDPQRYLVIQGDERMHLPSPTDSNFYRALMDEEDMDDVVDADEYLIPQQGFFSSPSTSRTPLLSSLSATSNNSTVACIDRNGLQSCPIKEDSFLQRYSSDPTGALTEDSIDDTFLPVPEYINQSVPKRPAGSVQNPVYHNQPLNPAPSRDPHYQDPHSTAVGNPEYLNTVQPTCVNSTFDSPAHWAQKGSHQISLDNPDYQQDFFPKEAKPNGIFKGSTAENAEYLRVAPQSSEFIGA
Chain of EGFR T790M/L858R kinase domain (P00533 669-1210 T790M/L858R): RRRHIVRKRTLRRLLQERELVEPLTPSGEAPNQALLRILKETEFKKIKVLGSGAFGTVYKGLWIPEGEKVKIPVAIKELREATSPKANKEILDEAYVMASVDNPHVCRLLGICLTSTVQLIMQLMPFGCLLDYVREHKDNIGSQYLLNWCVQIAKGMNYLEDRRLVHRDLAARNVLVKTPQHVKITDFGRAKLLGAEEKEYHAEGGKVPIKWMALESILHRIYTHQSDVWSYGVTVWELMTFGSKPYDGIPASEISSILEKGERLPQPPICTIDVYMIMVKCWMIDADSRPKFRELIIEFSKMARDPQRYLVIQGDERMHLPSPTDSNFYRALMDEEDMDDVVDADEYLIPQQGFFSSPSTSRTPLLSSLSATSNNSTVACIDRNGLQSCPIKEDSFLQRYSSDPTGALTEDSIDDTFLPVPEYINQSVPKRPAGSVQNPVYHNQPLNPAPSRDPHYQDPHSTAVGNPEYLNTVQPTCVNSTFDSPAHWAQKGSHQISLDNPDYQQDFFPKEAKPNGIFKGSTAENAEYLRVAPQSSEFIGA
Chain of C-Raf (Y340D/Y341D) (P04049 whole entry Y340D/Y341D): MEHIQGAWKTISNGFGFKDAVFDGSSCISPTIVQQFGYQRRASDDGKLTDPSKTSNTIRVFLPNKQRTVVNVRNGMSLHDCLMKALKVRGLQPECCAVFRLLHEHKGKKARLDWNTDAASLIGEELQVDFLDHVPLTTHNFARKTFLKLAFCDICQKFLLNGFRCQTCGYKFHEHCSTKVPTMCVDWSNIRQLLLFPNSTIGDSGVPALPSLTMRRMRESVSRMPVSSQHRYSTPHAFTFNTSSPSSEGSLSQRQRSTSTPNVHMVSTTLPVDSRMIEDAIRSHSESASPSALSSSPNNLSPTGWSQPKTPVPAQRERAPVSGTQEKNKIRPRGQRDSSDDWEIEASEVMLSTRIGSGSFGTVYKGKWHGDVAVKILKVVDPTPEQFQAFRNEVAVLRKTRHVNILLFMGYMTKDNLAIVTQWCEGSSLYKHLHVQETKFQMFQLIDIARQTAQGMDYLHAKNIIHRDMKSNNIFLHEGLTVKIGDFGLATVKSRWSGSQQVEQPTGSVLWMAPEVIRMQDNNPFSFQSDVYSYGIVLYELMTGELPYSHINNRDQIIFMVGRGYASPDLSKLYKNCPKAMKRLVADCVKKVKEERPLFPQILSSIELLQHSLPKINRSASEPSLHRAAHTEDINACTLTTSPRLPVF
Chain of wild type B-Raf (P15056 whole entry): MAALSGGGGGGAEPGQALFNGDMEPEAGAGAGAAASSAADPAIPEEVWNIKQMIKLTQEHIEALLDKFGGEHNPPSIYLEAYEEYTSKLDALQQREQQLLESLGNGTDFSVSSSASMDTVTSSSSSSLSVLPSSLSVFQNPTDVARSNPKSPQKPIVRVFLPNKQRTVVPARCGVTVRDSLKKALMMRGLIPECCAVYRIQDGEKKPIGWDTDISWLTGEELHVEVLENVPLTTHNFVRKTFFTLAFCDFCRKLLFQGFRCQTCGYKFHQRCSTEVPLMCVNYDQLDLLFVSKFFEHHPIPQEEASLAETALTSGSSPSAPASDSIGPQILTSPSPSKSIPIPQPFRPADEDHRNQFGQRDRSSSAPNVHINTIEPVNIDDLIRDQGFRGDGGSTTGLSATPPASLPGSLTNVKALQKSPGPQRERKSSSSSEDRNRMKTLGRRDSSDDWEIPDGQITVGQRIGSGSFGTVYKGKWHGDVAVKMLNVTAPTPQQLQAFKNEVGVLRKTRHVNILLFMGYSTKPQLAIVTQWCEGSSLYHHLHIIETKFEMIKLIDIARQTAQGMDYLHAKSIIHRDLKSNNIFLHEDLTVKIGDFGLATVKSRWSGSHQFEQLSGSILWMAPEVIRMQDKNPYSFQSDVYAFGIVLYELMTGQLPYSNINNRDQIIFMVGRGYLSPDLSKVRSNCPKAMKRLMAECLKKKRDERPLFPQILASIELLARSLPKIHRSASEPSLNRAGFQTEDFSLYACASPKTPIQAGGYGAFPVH
Chain of WT EGFR kinase domain (P00533 669-1210): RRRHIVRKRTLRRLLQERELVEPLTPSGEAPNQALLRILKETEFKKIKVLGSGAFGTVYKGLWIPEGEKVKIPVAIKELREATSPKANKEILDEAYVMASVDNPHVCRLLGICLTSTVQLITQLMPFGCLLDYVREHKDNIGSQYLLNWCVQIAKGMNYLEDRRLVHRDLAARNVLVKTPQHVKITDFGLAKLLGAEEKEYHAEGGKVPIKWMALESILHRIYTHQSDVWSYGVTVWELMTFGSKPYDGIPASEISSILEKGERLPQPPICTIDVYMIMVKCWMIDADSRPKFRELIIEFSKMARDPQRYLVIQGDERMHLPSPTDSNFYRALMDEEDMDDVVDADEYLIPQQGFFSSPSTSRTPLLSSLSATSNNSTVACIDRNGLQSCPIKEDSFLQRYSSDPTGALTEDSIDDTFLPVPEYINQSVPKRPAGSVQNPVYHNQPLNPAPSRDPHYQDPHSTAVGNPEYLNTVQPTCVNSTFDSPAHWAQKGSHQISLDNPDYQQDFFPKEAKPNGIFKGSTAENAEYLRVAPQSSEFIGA
Chain of B-Raf (V600E) (P15056 whole entry V600E): as the sequence (P15056 whole entry) above, with V600E counted along it

IC50 [1] [nM] | IC50 [2] [nM] | IC50 [3] [nM] | IC50 ([4]; IC50 Braf-WT […] ATP, […] ATP) [nM] | IC50 [4, 7] [nM] | IC50 [5] [nM] | IC50 [6] [nM] | SMILES
41 | 18 | 100 | 380 | 96 | 504 | 70 | O=C1CCc2c(Oc3ccc4c(c3)[C@H]3[C@H](NC(=O)c5ccc(CN6CCCCC6)c(C(F)(F)F)c5)[C@H]3O4)ccnc2N1 [Compound 1.8]
9 | 1.3 | 0.16 | 33 | 9.4 | 0.21 | 0.67 | O=C1CCc2c(Oc3ccc4c(c3)[C@H]3[C@H](NC(=O)c5ccc(CN6CCN7CCC[C@@H]7C6)c(C(F)(F)F)c5)[C@H]3O4)ccnc2N1 [Compound 1.12]
14 | 1.4 | 1.2 | – | 34 | 8.1 | 2.7 | CN(C)Cc1ccc(C(=O)N[C@@H]2[C@H]3Oc4ccc(Oc5ccnc6c5CCC(=O)N6)cc4[C@@H]23)cc1C(F)(F)F [Compound 1.24]
0.71 | 0.25 | 0.15 | 3.4 | 1.4 | 1.2 | 0.48 | CC(C)(N)c1cc(C(=O)N[C@@H]2[C@H]3Oc4ccc(Oc5ccnc6c5CCC(=O)N6)cc4[C@@H]23)cc(C(F)(F)F)c1 [Compound 1.25, 3-(2-aminopropan-2-yl)-N-((1S,1aS,6bS)-5-((7-oxo-5,6,7,8-tetrahydro-1,8-naphthyridin-4-yl)oxy)-1a,6b-dihydro-1H-cyclopropa[b]benzofuran-1-yl)-5-(trifluoromethyl)benzamide]
2.2 | 0.52 | 1.3 | – | 5.7 | 9.4 | 1.7 | NC1(c2cc(C(=O)N[C@@H]3[C@H]4Oc5ccc(Oc6ccnc7c6CCC(=O)N7)cc5[C@@H]34)cc(C(F)(F)F)c2)CC1 [Compound 1.26, 3-(1-aminocyclopropyl)-N-((1S,1aS,6bS)-5-((7-oxo-5,6,7,8-tetrahydro-1,8-naphthyridin-4-yl)oxy)-1a,6b-dihydro-1H-cyclopropa[b]benzofuran-1-yl)-5-(trifluoromethyl)benzamide]
27.2 | 3 | 0.31 | 120 | 63 | 0.54 | 1.3 | O=C1CCc2c(Oc3ccc4c(c3)[C@H]3[C@H](NC(=O)c5ccc(CN6CCNCC6)c(C(F)(F)F)c5)[C@H]3O4)ccnc2N1 [Compound 1.27, N-((1S,1aS,6bS)-5-((7-oxo-5,6,7,8-tetrahydro-1,8-naphthyridin-4-yl)oxy)-1a,6b-dihydro-1H-cyclopropa[b]benzofuran-1-yl)-4-(piperazin-1-ylmethyl)-3-(trifluoromethyl)benzamide]
6.2 | 1.1 | 0.14 | – | 9.1 | 0.3 | 0.61 | C[C@H]1CN(Cc2ccc(C(=O)N[C@@H]3[C@H]4Oc5ccc(Oc6ccnc7c6CCC(=O)N7)cc5[C@@H]34)cc2C(F)(F)F)CCN1 [Compound 1.29, 4-(((S)-3-methylpiperazin-1-yl)methyl)-N-((1S,1aS,6bS)-5-((7-oxo-5,6,7,8-tetrahydro-1,8-naphthyridin-4-yl)oxy)-1a,6b-dihydro-1H-cyclopropa[b]benzofuran-1-yl)-3-(trifluoromethyl)benzamide]
15 | 0.78 | 0.44 | – | 10 | 1.9 | 0.99 | CN(C)[C@@H]1CCCN(Cc2ccc(C(=O)N[C@@H]3[C@H]4Oc5ccc(Oc6ccnc7c6CCC(=O)N7)cc5[C@@H]34)cc2C(F)(F)F)C1 [Compound 1.31, 4-(((R)-3-(dimethylamino)piperidin-1-yl)methyl)-N-((1S,1aS,6bS)-5-((7-oxo-5,6,7,8-tetrahydro-1,8-naphthyridin-4-yl)oxy)-1a,6b-dihydro-1H-cyclopropa[b]benzofuran-1-yl)-3-(trifluoromethyl)benzamide]
